This note sets out measurements from patent publication US12378203B2, “Imidazole compounds, process for the synthesis and uses thereof” (AHAMMUNE BIOSCIENCES PRIVATE LIMITED, priority 2018, dated 2025).

pEC50: −log10 of the molar value.

Format in all cases: cell-based
The subject of assay [1] is mouse B16F10 cells. Briefly: Protection of melanocytes from tunicamycin (ER stress) induced cell death, MTT assay, B16F10. The note with it: for pEC50: Mus musculus, B16-F10, different concentrations of compound along with tunicamycin, GraphPad Prism 7; for % Recovery: compound at 25-30 μM, 6 h pretreatment, tunicamycin 300 ng/ml, total 72 h, cell growth over tunicamycin treatment. On the procedure:
(§1) Compounds synthesized under present invention were tested for their in vitro potency. The potency was tested as their ability to protect melanocytes from ER stress induced cell death. ER stress was caused by the treatment of tunicamycin. The results obtained are summarized in Table-I, Table-II and Table-III for mouse B16F10 cells, human A375 cells and human primary melanocytes respectively. Table-IV and Table-V describes the potency of the compounds in effective concentration 50 (EC50) which means the dose of compound needed to get the 50% of maximum effect.
(§2) For the estimation of potency, mouse B16F10, human A375 or human primary melanocytes (NHEM) cells were pretreated in quadruplicates with these compounds for 6 hours. After 6 hours of incubation, tunicamycin was added at either 300 ng/ml for B16F10 cells or at 100 ng/ml for A375 cells or at 200 ng/ml for NHEM to induce stress mediated cell death and cultured further for a total of 72 hours. The vehicle (DMSO) concentration was kept constant for each well. After 72 hours of treatment, MTT assay was performed to measure the cell growth and vehicle control was kept at 100%. Effect of the treatment of compounds was calculated as cell growth over tunicamycin treatment. For the estimation of Effective Concentration 50 (EC50), cells were treated with different concentration of compounds along with tunicamycin and MTT assay was performed. The EC50 values were calculated by GraphPad Prism 7 software.
For orientation: Tetrazolium assays rely on reduction of a dye to a coloured formazan, in cell work by metabolically active cells.

Assay [2] has as its system human primary melanocytes (NHEM: Normal Human Epidermal Melanocytes). In words: Protection of melanocytes from tunicamycin (ER stress) induced cell death, MTT assay, NHEM. The following applies: compound at 25-30 μM, 6 h pretreatment, tunicamycin 200 ng/ml, total 72 h, cell growth over tunicamycin treatment. The protocol:
as §1, §2

The test system of assay [3] is human A375 cells. In words: Protection of melanocytes from tunicamycin (ER stress) induced cell death, MTT assay, A375. The note with it: for pEC50: Homo sapiens, A-375, different concentrations of compound along with tunicamycin, GraphPad Prism 7; for % Recovery: compound at 25-30 μM, 6 h pretreatment, tunicamycin 100 ng/ml, total 72 h, cell growth over tunicamycin treatment. On the procedure:
as §1, §2

Usually pEC50 stands for the EC50 on a negative log10 scale, so that one unit is a factor of ten. A lower pEC50 goes with a high EC50. In the case of `CCC(C)(C)C(=O)NCCc1c[nH]c(-c2ccc(Cl)cc2)n1` [Compound 026, N-(2-(2-(4-chlorophenyl)-1H-imidazol-4-yl)ethyl)-2,2-dimethylbutanamide], the negative-log EC50 (pEC50) in assay [1] is 5.07; in assay [3], 4.73. For the same molecule, the “% Recovery” value worked out at 15% in assay [1], 30% in assay [2] and 50% in assay [3].

For `O=C(NCCc1c[nH]c(-c2ccc(Cl)cc2)n1)C1CC1` [Compound 046, N-(2-(2-(4-chlorophenyl)-1H-imidazol-4-yl)ethyl)cyclopropanecarboxamide], the “% Recovery” value in assay [1] came to 27%; in assay [2] it was 10%; in assay [3], 63%. Also, the pEC50 in assay [3] was 5.10.

`O=C(NCCc1c[nH]c(-c2ccc(Cl)cc2)n1)C1CCC1` [Compound 050, N-(2-(2-(4-chlorophenyl)-1H-imidazol-4-yl)ethyl)cyclobutanecarboxamide]: the “% Recovery” value in assay [1] is given as 35%; in assay [2], 5%; in assay [3] it was 27%. The same molecule had a negative-log EC50 (pEC50) in assay [3] of 4.48.

With `O=C(NCCc1c[nH]c(-c2ccc(Cl)cc2)n1)c1ccc(F)cc1` [Compound 051, N-(2-(2-(4-chlorophenyl)-1H-imidazol-4-yl)ethyl)-4-fluorobenzamide], the “% Recovery” value in assay [1] turned out to be 22%; in assay [2], 35%; in assay [3] it was 50%. In addition, the pEC50 in assay [3] is 5.23.

Turning to `O=C(NCCc1c[nH]c(-c2ccc(Cl)cc2)n1)c1ccc(C(F)(F)F)cc1` [Compound 053, N-(2-(2-(4-chlorophenyl)-1H-imidazol-4-yl)ethyl)-4-(trifluoromethyl)benzamide], the negative-log EC50 (pEC50) in assay [1] was 4.74; in assay [3], 5.54. For the same molecule, the entries for the “% Recovery” value in assay [1], in assay [2] and in assay [3] were 24%, 37% and 65%, respectively.

In the case of `O=C(NCCc1c[nH]c(-c2ccc(Cl)cc2)n1)c1cc(F)cc(F)c1` [Compound 054, N-(2-(2-(4-chlorophenyl)-1H-imidazol-4-yl)ethyl)-3,5-difluorobenzamide], the “% Recovery” value in assay [1] was found to be 33%; in assay [2] it was 46%; in assay [3] it was 58%. This molecule gave a pEC50 in assay [3] of 5.54.

Consider `O=C(NCCc1c[nH]c(-c2ccc(Cl)cc2)n1)C1=CCCC1` [Compound 055, N-(2-(2-(4-chlorophenyl)-1H-imidazol-4-yl)ethyl)cyclopent-1-ene-1-carboxamide], for which the “% Recovery” value in assay [1] stood at 10%; in assay [2], 13%; in assay [3], 59%. This molecule had a negative logarithm of the EC50 (pEC50) in assay [3] of 5.05.
